Converted amounts (≈) assume the structure as drawn.
Experiments:
Type in all cases: functional
[1] = Antimicrobial activity against Beta-hemolytic Streptococcus sp. 'group G' assessed as growth inhibition at 0.12 ug/ml by broth microdilution method
Enterococcus faecium [2] = assay: Antimicrobial activity against Enterococcus faecium VanB assessed as growth inhibition at 1 ug/ml by broth microdilution method
Enterococcus faecalis [3] = assay: Antimicrobial activity against Enterococcus faecalis VanB assessed as growth inhibition at 4 ug/ml by broth microdilution method
Enterococcus faecalis [4] = assay: Antimicrobial activity against Enterococcus faecalis VanA assessed as growth inhibition at 2 ug/ml by broth microdilution method
Staphylococcus = assay: Antimicrobial activity against Oxacillin-susceptible coagulase-negative Staphylococcus by broth microdilution method
[5] = system: Streptococcus sp. 'group B'; assay: Antimicrobial activity against Beta-hemolytic Streptococcus sp. 'group B' assessed as growth inhibition at =<[…] ug/ml by broth microdilution method
[6] = system: Streptococcus sp. 'group A'; assay: Antimicrobial activity against Beta-hemolytic Streptococcus sp. 'group A' assessed as growth inhibition at =<[…] ug/ml by broth microdilution method
Streptococcus sp. = assay: Antimicrobial activity against Beta-hemolytic Streptococcus sp. Group F assessed as growth inhibition at 0.06 ug/ml by broth microdilution method
Streptococcus [7] = assay: Antimicrobial activity against Beta-hemolytic Streptococcus assessed as percent susceptible isolate by broth microdilution method
Streptococcus [8] = assay: Antimicrobial activity against viridans group Streptococcus by broth microdilution method
[9] = system: Streptococcus sp. 'group B'; assay: Antimicrobial activity against Beta-hemolytic Streptococcus sp. 'group B' assessed as growth inhibition at 0.25 ug/ml by broth microdilution method
Enterococcus faecium [10] = assay: Antimicrobial activity against Enterococcus faecium VanA assessed as growth inhibition at 1 ug/ml by broth microdilution method
Enterococcus faecalis [11] = assay: Antimicrobial activity against Enterococcus faecalis VanA assessed as growth inhibition at 0.25 ug/ml by broth microdilution method
Enterococcus faecium [12] = assay: Antimicrobial activity against Enterococcus faecium VanA assessed as growth inhibition at 2 ug/ml by broth microdilution method
Enterococcus faecalis [13] = assay: Antimicrobial activity against Enterococcus faecalis VanB assessed as growth inhibition at 0.06 ug/ml by broth microdilution method
Enterococcus faecalis [14] = assay: Antimicrobial activity against Enterococcus faecalis VanB assessed as growth inhibition at 2 ug/ml by broth microdilution method

Compound: CN[C@H](CC(C)C)C(=O)N[C@H]1C(=O)N[C@@H](CC(N)=O)C(=O)N[C@H]2C(=O)N[C@H]3C(=O)N[C@H](C(=O)N[C@H](C(=O)O)c4cc(O)cc(O)c4-c4cc3ccc4O)[C@H](O)c3ccc(c(Cl)c3)Oc3cc2cc(c3O[C@@H]2O[C@H](CO)[C@@H](O)[C@H](O)[C@H]2O[C@H]2C[C@](C)(N)[C@H](O)[C@H](C)O2)Oc2ccc(cc2Cl)[C@H]1O [VANCOMYCIN]
- inhibition at 0.12 µg/mL [1]: 100%
- inhibition at 1 µg/mL (Enterococcus faecium [2]): 90.3%
- inhibition at 4 µg/mL (Enterococcus faecalis [3]): 91.7%
- inhibition at 2 µg/mL (Enterococcus faecalis [4]): 7.4%
- MIC50 (Staphylococcus): 1 µg/mL (≈ 0.69 µM)
- MIC90 (Staphylococcus): 2 µg/mL (≈ 1.38 µM)
- inhibition (INH) [5]: 90.3%
- inhibition (INH) [6]: 98.8%
- inhibition at 0.06 µg/mL (Streptococcus sp.): 97.1%
- Activity (Streptococcus [7]): 100%
- MIC50 (Streptococcus [8]): 0.5 µg/mL (≈ 0.345 µM)
- MIC90 (Streptococcus [8]): 1 µg/mL (≈ 0.69 µM)
- inhibition at 0.25 µg/mL [9]: 100%
- inhibition at 1 µg/mL (Enterococcus faecium [10]): 11.5%
- inhibition at 0.25 µg/mL (Enterococcus faecalis [11]): 3.9%
- inhibition at 2 µg/mL (Enterococcus faecium [12]): 18.3%
- inhibition at 0.06 µg/mL (Enterococcus faecalis [13]): 33.3%
- inhibition at 2 µg/mL (Enterococcus faecalis [14]): 85.7%

Source: ChEMBL document CHEMBL1629667, “Activities of dalbavancin against a worldwide collection of 81,673 gram-positive bacterial isolates” (2009)
